Patent US4970214A, “Quinoline substituted oxomethyl or thioxomethyl glycine derivatives and aldose reductase inhibition therewith” (Nippon Shinyaku Co., Ltd., priority 1986, dated 1990)

Columns and labels:
aldose reductase [1] = target: T1, aldose reductase (Bos taurus, UniProt P16116); assay: Activity of aldose reductase, in vitro; type: biochemical; details: aldose reductase from crystal eye of cow
T1 construct: The aldose reductase used was that obtained from crystal eye of cow; from tissue; host or cells: cow eye lens
Description: The aldose reductase used was that obtained from crystal eye of cow and the measurement was done in vitro.

Male mice of ddY strain = assay: Acute toxicity, oral, rate of death and general symptoms; type: in vivo; details: for rate of death: two weeks
Description: Male mice of ddY strain (5 weeks of age) were used (one group comprised 4 to 5 mice).

[2] = test system: Accumulation of Galactitol in sciatic nerve; assay: Accumulation of galactitol in sciatic nerve after single oral galactose; type: in vivo, rat (Sprague-Dawley); details: 4 hours prior to 5 g/kg galactose, rats sacrificed after 3 hours
Method: (B) Male rats of Sprague-Dawley strain (body weight: 150 to 200 g) were fasted overnight and used in the test (one group comprised 4 rats). To all groups were given 5 g/kg of galactose orally, then the rats were sacrificed after 3 hours, and sciatic nerve was taken out and weighed. The content of galactitol in the sciatic nerve was measured by high performance liquid chromatography in accordance with a method by Jean-Marie Dethy (Anal. Biochem. 143, 119, 1984). The test compound was given orally 4 hours prior to the administration of galactose. To the control group was given 0.5% methylcellulose.

[3] = test system: amounts of inositol and galactitol in the sciatic nerve; assay: Inositol and galactitol in sciatic nerve of rats fed 20% galactose diet for 4 days; type: in vivo, rat (Sprague-Dawley); details: 9 a.m. and 5 p.m., rat sciatic nerve
Method: (C) Non-fasted male rats of Sprague-Dawley strain (5 rats in one group) of 150-220 g body weight were used. To all groups was administered 20% galactose diet (a mixture of galactose and F-2 which is a product of Funahashi Farm) and fed for 4 days. The test compound was given orally at 9 a.m. and 5 p.m. from the first to the fourth day. On the fifth day, the rats were sacrificed, sciatic nerve was taken out, and the amounts of inositol and galactitol in the sciatic nerve were measured by the method as given before.

aldose reductase [4] = assay: Aldose reductase inhibiting action (statement in words, test not described)

| Structure (SMILES) | IC50 (aldose reductase [1]) [µM] | rate of death (Male mice of ddY strain; 1000 mg/kg oral) | Inhibition rate (%) against Accumulation of Galactitol in sciatic nerve ([2]; 20 mg/kg oral) [%] | Inhibition rate (%) against Accumulation of Galactitol in sciatic nerve ([2]; 50 mg/kg oral) [%] | Inhibition Rate (%) ([3]; 10 mg/kg oral) | Inhibition Rate (%) ([3]; 20 mg/kg oral) | Inhibition rate (%) against Accumulation of Galactitol in sciatic nerve ([2]; 10 mg/kg oral) [%] | Inhibition Rate (%) ([3]; 5 mg/kg oral) | rate of death (Male mice of ddY strain; 500 mg/kg oral) | Inhibition rate (%) against Accumulation of Galactitol in sciatic nerve ([2]; 100 mg/kg oral) [%] | aldose reductase inhibiting action (aldose reductase [4]) | case of death (Male mice of ddY strain; 3 g/kg oral) |
| --- | --- | --- | --- | --- | --- | --- | --- | --- | --- | --- | --- | --- |
| CN(CC(=O)OCCO)C(=S)c1cc(-c2ccccc2F)nc2cc(F)ccc12 [Compound 3] | > 8.7 | 0/4 | 32.68 | 70.78 | 26 | 37 |  |  |  |  |  |  |
| Cc1cc(C(=S)N(C)CC(=O)OCCO)c2cccc(C(F)(F)F)c2n1 [Compound 2, β-Hydroxyethyl ester of N-[(2-methyl-8-trifluoromethylquinolin-4-yl)thioxomethyl]-N-methylglycine] | > 8.7 |  | 91.28 | 98.19 | 46 | 77 | 45.37 | 27 |  |  |  |  |
| COc1ccc2c(C(=S)N(C)CC(=O)O)cccc2c1C(F)(F)F [Tolrestat, reference compound] |  | 3/4 | 28.26 | 68.00 | 86 | 96 | 21.01 | 34 | 2/4 | 95.43 |  |  |
| O=C(O)CNC(=O)c1cc(-c2ccccc2)nc2ccccc12 [[(2-phenylquinolin-4-yl)carbonyl]glycine] |  |  |  |  |  |  |  |  |  |  | does not exhibit the aldose reductase inhibiting action |  |
| CCc1cc(C(=S)N(C)CC(=O)OCCO)c2cccc(C(F)(F)F)c2n1 [Compound 5, β-Hydroxyethyl ester of N-[(2-ethyl-8-trifluoromethylquinolin-4-yl)thioxomethyl]-N-methylglycine] |  | 0/4 | 13.98 | 79.66 |  |  |  |  |  |  |  |  |
| CN(CC(=O)OCCO)C(=S)c1cc(-c2ccccc2)nc2ccccc12 [Compound 1, β-Hydroxyethyl ester of N-[(2-phenylquinolin-4-yl)thioxomethyl]-N-methylglycine] | > 8.7 | 0/4 | 54.88 | 84.57 | 45 | 67 |  |  |  | 92.57 |  | no case of death |
